Measured values: patent publication US5250734A, “Phenanthrene methanol compounds useful as antimalarial agents” (Belmac Corporation, priority 1992, dated 1993)
“Also recorded” adds a separate entry of the source. Structures can show the parent of a compound that is named as a salt. Where two headings read alike, the source gives them in different places.

Tests used:
[1] = system: Plasmodium berghei KBG 173; experiment: Survival of mice infected with drug-sensitive malaria, compound of Synthesis Example 3, halofantrine or mefloquine; type: in vivo, Plasmodium berghei KBG 173 in ICR/HA Swiss mice; conditions: SC
From the text: The protocol which is set forth below is a well-established model for the treatment of malaria in human beings, and has been adopted by the U.S. Army Medial Research Command.
The system used for the compounds formed in Synthesis Examples 2 and 3 was based on comparisons of responses to test compounds by Plasmodium berghei KBG 173 malaria in mice as expressed in mean survival times and the mean survival times of untreated controls. Thus, compounds noted as active produced increases in the survival times of the treated animals that are significant when compared with the survival times of untreated controls. Since an established disease is less sensitive to treatment than a disease in the early stages of development, treatment was withheld until the parasitemia was relatively high in order to ensure a more reliable assay of activity and the selection of appropriate compounds for pre-clinical studies.
(§1) Utilizing young ICR/HA Swiss mice and a standard inoculum of Plasmodium berghei KBG 173, it was possible to produce a uniform disease fatal to […] of untreated animals within 6 to 8 days with a mean survival time of 6.2 days. Test animals weighed from 18 to 22 grams but weight variations in any given experimental or control group were confined to 2-3 grams. All animals in any given test were approximately of the same age. Animals on test were housed in metal-topped plastic cages, given a standard laboratory diet and water ad libitum.
(§2) Test animals received an intraperitoneal injection of 0.5 ml of 1:100 dilution of heparinized heart's blood with a minimum of 90% parasitized cells (4×10^7 cells), drawn from donor mice infected one week earlier with Plasmodium berghei. The donor strain was maintained by weekly passages in separate groups of mice inoculated with a 0.5 ml of 1:500 dilution of heparinized heart's blood.
(§3) Test compounds were administered after dissolution or suspension in peanut oil. A single dose was given subcutaneously 72 hours after the mice were infected with Plasmodium berghei. At this time a 10-15 percent parasitemia had developed; the disease was well established but had not produced sufficient debility to alter the response of the host to toxic effects of the drug on test. Since treatment was withheld for three days to permit the infection to become well-established and death occurred in untreated controls within 6-8 days, it was felt that this system presented a candidate compound with the maximum challenge.

[2] = system: Plasmodium berghei KBG 173; experiment: as above; type: in vivo, Plasmodium berghei KBG 173 in ICR/HA Swiss mice
[3] = system: Plasmodium berghei KBG 173; experiment: Survival of malaria infected mice, compound of Synthesis Example 2, halofantrine or mefloquine; type: in vivo, Plasmodium berghei KBG 173 in ICR/HA Swiss mice
[4] = system: Plasmodium berghei KBG 173; experiment: Mean parasitemias for mice treated with the compound of Synthesis Example 2; type: in vivo, Plasmodium berghei KBG 173 in ICR/HA Swiss mice
[5] = Toxicity in malaria infected mice; type: in vivo, ICR/HA Swiss mice; conditions: 256 mg/kg/day
From the text: as §1, §2
Test compounds were administered after dissolution or suspension in peanut oil. A single dose was given subcutaneously 72 hours after the mice were infected with Plasmodium berghei. At this time a 10-15 percent parasitemia had developed; the disease was well established but had not produced sufficient debility to alter the response of the host to toxic effects of the drug on test. […]

[6] = system: P. falciparum (multi-drug resistant Vietnam Smith strain and Cambodian Buchanan strain); conditions: short period, minimum of two doses; Vietnam Smith and Cambodian Buchanan strains; cited from earlier work
[7] = system: Chesson strain of P. vivax; conditions: short period, minimum of two doses; cited from earlier work
[8] = in vivo; cited from earlier work
[9] = system: Plasmodium falciparum FCM 29/Cameroon; experiment: In vitro drug susceptibility test ([3H]hypoxanthine uptake), strain FCM 29/Cameroon; type: cell-based
Protocol: (§4) Three strains of P. falciparum were used. FCM 29/Cameroon was highly chloroquine- and quinine-resistant (IC50 […] and 800 nM, respectively). The strain was cloned by a dilution method. FCM 6/Thailand was moderately chloroquine-resistant (IC50 600 nM), while L-3/Ivory Coast was chloroquine-susceptible (IC50 20 nM). The continuous in vitro culture of the parasites was maintained under standard conditions, as described by W. Trager and J. B. Jensen, "Human malaria parasites in continuous culture", Science 193, 673-675 (1976), with a gas phase of 5% O2, 5% CO2, and 90% N2.
(§5) The test compound was dissolved in methanol to a concentration of 1 mg/ml. Triplicates of seven serial dilutions were prepared to obtain the final concentrations ranging from 0.4 to 25 ng/ml and distributed in 24-well plates. […]
(§6) The testing procedures used for the in vitro assay in this study were those described by J. Le Bras and P. Deloron, "In vitro study of drug sensitivity of Plasmodium falciparum: an evaluation of a new semi-microtest", American Journal of Tropical Medicine and Hygiene 32: 447-451 (1983). […] The filter discs were dried and placed in a mini-vial with 1.5 ml of liquid scintillation cocktail (OptiScint `Hisafe`, LKB, Wallac, England) and the amount of radioactivity incorporated by the parasites was measured by a liquid scintillation counter (Wallac 1410, Pharmacia, Sweden). […]

[10] = system: Plasmodium falciparum FCM 6/Thailand; experiment: In vitro drug susceptibility test ([3H]hypoxanthine uptake), strain FCM 6/Thailand; type: cell-based; conditions: mean ± SEM from four separate assays
Protocol: as §4, §5, §6

[11] = system: Plasmodium falciparum L-3/Ivory Coast; experiment: In vitro drug susceptibility test ([3H]hypoxanthine uptake), strain L-3/Ivory Coast; type: cell-based; conditions: two values given
Protocol: as §4, §5, §6

[12] = system: Plasmodium falciparum; experiment: In vitro antimalarial activity against established lines of P. falciparum (overall statement); type: cell-based
Protocol: The compound of Synthesis Example 1 was tested against the established lines of Plasmodium falciparum in vitro. Halofantrine hydrochloride was used as a reference drug.
as §4
The test compound was dissolved in methanol to a concentration of 1 mg/ml. […]
as §6

[13] = system: Plasmodium berghei; experiment: Positive control group of infected mice treated with pyrimethamine; type: in vivo, Plasmodium berghei in ICR/HA Swiss mice; conditions: dose levels not stated
Protocol: as §3

[14] = system: Plasmodium falciparum (chloroquine-sensitive and resistant strains); conditions: cited from earlier work

## Cl.OC(CCNCCCc1ccccc1)c1cc2c(Cl)cc(Cl)cc2c2cc(C(F)(F)F)ccc12 (centres unmarked) [Synthesis Example 3, 1,3-dichloro-6-trifluoromethyl-9-[1-hydroxy-3-(3-phenyl-1-propylamino)propyl] phenanthrene hydrochloride]
[1]; 16 mg/kg/day
  number of mice alive D + 18 / total: 7/7
[2]; 1 mg/kg/day, PO
  number of mice alive D + 18 / total: 2/7
[2]; 1 mg/kg/day, SC
  number of mice alive D + 18 / total: 1/7
[2]; 4 mg/kg/day, PO
  number of mice alive D + 18 / total: 6/7
  number of mice dead/day died: 1/8
[2]; 4 mg/kg/day, SC
  number of mice alive D + 18 / total: 7/7
[2]; 16 mg/kg/day, PO
  number of mice alive D + 18 / total: 7/7
[2]; 64 mg/kg/day, PO
  number of mice alive D + 18 / total: 7/7
[2]; 64 mg/kg/day, SC
  number of mice alive D + 18 / total: 7/7
[2]; 256 mg/kg/day, PO
  number of mice alive D + 18 / total: 6/7
  number of mice dead/day died: 1/4
[2]; 256 mg/kg/day, SC
  number of mice alive D + 18 / total: 7/7

## 1,3-dichloro-6-triflurormethyl-[1-hydroxy-3-(3-phenyl-1-propylamino)propyl] phenanthrene quinate [Synthesis Example 2]
[3]; 1 mg/kg/day, PO
  number of mice alive day 21/total: 3/7
[3]; 1 mg/kg/day, SC
  number of mice alive day 21/total: 3/7
[3]; 4 mg/kg/day, PO
  number of mice alive day 21/total: 7/7
[3]; 4 mg/kg/day, SC
  number of mice alive day 21/total: 5/7
[3]; 16 mg/kg/day, PO
  number of mice alive day 21/total: 6/7
  number of mice dead/day died: 1/21
[3]; 16 mg/kg/day, SC
  number of mice alive day 21/total: 7/7
[3]; 64 mg/kg/day, PO
  number of mice alive day 21/total: 7/7
[3]; 64 mg/kg/day, SC
  number of mice alive day 21/total: 7/7
[3]; 256 mg/kg/day, PO
  number of mice alive day 21/total: 1/7
[3]; 256 mg/kg/day, SC
  number of mice alive day 21/total: 5/7
[4]; 4 mg/kg/day, oral
  mean parasitemia: 31.2
[4]; 4 mg/kg/day, subcut.
  mean parasitemia: 45.2
[4]; 16 mg/kg/day, oral
  mean parasitemia: 16.3
[4]; 16 mg/kg/day, subcut.
  mean parasitemia: 10.7
[4]; 64 mg/kg/day, oral
  mean parasitemia: 0.14
[4]; 64 mg/kg/day, subcut.
  mean parasitemia: 0.4
[4]; 256 mg/kg/day, oral
  mean parasitemia: 1.00
[4]; 256 mg/kg/day, subcut.
  mean parasitemia: 0.00
[4]; 1 (printed "l") mg/kg/day, oral
  mean parasitemia: 19.3
[4]; 1 (printed "l") mg/kg/day, subcut.
  mean parasitemia: 61.7
[5]
  toxicity: Toxicity clearly evident at this level

## CCCCN(CCCC)CCC(O)c1cc2c(Cl)cc(Cl)cc2c2cc(C(F)(F)F)ccc12 (centres unmarked) [halofantrine, 1-[1,3-dichlorotrifluoromethyl-9-phenanthryl]-3-di-(n-butyl)-aminopropanolhydrochloride]
[3]; 1 mg/kg/day, PO
  number of mice alive day 21/total: 4/7
[3]; 1 mg/kg/day, SC
  number of mice alive day 21/total: 2/7
[3]; 4 mg/kg/day, PO
  number of mice alive day 21/total: 6/7
  number of mice dead/day died: 1/19
[3]; 4 mg/kg/day, SC
  number of mice alive day 21/total: 7/7
[3]; 16 mg/kg/day, PO
  number of mice alive day 21/total: 6/7
  number of mice dead/day died: 1/19
[3]; 16 mg/kg/day, SC
  number of mice alive day 21/total: 6/7
  number of mice dead/day died: 1/21
[1]; 1 mg/kg/day
  number of mice alive D + 18 / total: 5/7
[1]; 4 mg/kg/day
  number of mice alive D + 18 / total: 7/7
[1]; 16 mg/kg/day
  number of mice alive D + 18 / total: 7/7
[2]; 1 mg/kg/day, PO
  number of mice alive D + 18 / total: 4/7
  number of mice dead/day died: 3/18
[2]; 4 mg/kg/day, PO
  number of mice alive D + 18 / total: 6/7
  number of mice dead/day died: 1/18
[2]; 16 mg/kg/day, PO
  number of mice alive D + 18 / total: 6/6
[6]
  antimalarial efficacy: effective
[7]
  antimalarial efficacy: effective
[8]
  systemic bioavailability: problems with systemic bioavailability remained

## CCCCNCCC(O)c1cc2c(Cl)cc(Cl)cc2c2cc(C(F)(F)F)ccc12.Cl (centres unmarked) [Synthesis Example 1, 1,3-Dichloro-6-trifluoromethyl-9-[1-hydroxy-3-(butylamino)propyl] phenanthrene hydrochloride]
[9]
  IC50: 3.5 ± 0.6 ng/mL
[10]
  IC50: 3 ± 0.2 ng/mL
[11]; Plasmodium falciparum
  IC50: 4.3 ng/mL
[11]; hydrochloride
  IC50: 4.8 ng/mL
[12]; P. falciparum, reference halofantrine
  activity compared with halofantrine: slightly less than that of halofantrine
[12]; chloroquine-susceptible and chloroquine-resistant strains, hydrochloride
  antimalarial activity: high antimalarial activity against both chloroquine-susceptible and chloroquine-resistant strains; also recorded: potent antimalarial action at a low nanomolar range

## C=C[C@H]1C[N@@]2CC[C@H]1C[C@H]2[C@H](O)c1ccnc2ccc(OC)cc12 [quinine, reference compound]
[9]; read-out: IC50 (strain resistance)
  IC50: 800 nM

## CCc1nc(N)nc(N)c1-c1ccc(Cl)cc1 [pyrimethamine]
[13]
  survival time: definite increases in survival time

## OC(c1cc(C(F)(F)F)nc2c(C(F)(F)F)cccc12)C1CCCCN1 (stereo not drawn) [Mefloquine, α-2-piperidinyl-2,8-bis(trifluorormethyl)-4-quinoline methanol]
[3]; 1 mg/kg/day, PO
  number of mice alive day 21/total: 0/7
[3]; 4 mg/kg/day, PO
  number of mice alive day 21/total: 3/7
[3]; 16 mg/kg/day, PO
  number of mice alive day 21/total: 7/7
[1]; 1 mg/kg/day
  number of mice alive D + 18 / total: 0/7
[1]; 4 mg/kg/day
  number of mice alive D + 18 / total: 4/7
[1]; 16 mg/kg/day
  number of mice alive D + 18 / total: 7/7
[2]; 1 mg/kg/day, PO
  number of mice alive D + 18 / total: 0/7
[2]; 4 mg/kg/day, PO
  number of mice alive D + 18 / total: 6/7
  number of mice dead/day died: 1/16
[2]; 4 mg/kg/day, SC
  number of mice dead/day died: 3/13
[2]; 16 mg/kg/day, PO
  number of mice alive D + 18 / total: 7/7
[14]
  antimalarial activity in humans: exhibit antimalarial activity in humans against both chloroquine-sensitive and resistant strains
